Reference: US8716183B2, “Control of aquatic weeds with endothall and ALS-inhibiting agent” (SePro Corporation, priority 2008, dated 2014)

How the values were obtained:
[1] = test system: hydrilla; assay: Penoxsulam+endothall under multiple exposures to hydrilla, dry weight and Colby analysis; type: in vivo, Hydrilla verticillata; conditions: for Mean dry weight of hydrilla: penoxsulam 0.02, endothall 0.68 mg/L a.e.; for OBSERVED RESPONSE: penoxsulam 0.02, endothall 0.68 mg/L; for hydrilla biomass compared to untreated controls (LSD, p = 0.05): penoxsulam 0.02 or endothall 0.68 mg/L a.e. alone, 3 to 48 day exposures
From the text: Apical sections (12 to 15 cm in length) of hydrilla, collected from Florida, were planted into small pots (13.5 cm length×3.75 cm diameter) containing Wallace Farm® topsoil amended with 14-14-14 slow release Osmocote® fertilizer (˜2.5 g Osmocote/kg soil) on 16 Oct. 2008. Approximately 5 to 7 cm of the apical section extended above the sediment at planting, and a sand cap was placed over the potting soil (˜2 cm deep). Plants were then transferred to a 12 L acrylic tanks filled with well water. Tanks were maintained in a growth room with 14:10 h photoperiod at 26° C. Plants were allowed to grow for 8 days before the following treatments were initiated in triple replicate: • A) Untreated controls • B) Penoxsulam at 0.02 mg/L • C) Endothall at 0.68 mg/L a.e. • D) Simultaneous treatment • a. Penoxsulam 0.02 mg/L+endothall at 0.68 mg/L • i. Exposure times • 1. 3 days • 2. 6 days • 3. 12 days • 4. 24 days • 5. 48 days (static) • E) Sequential treatment • a. Penoxsulam 0.02 mg/L, add 0.68 mg/L endothall 24 days later—static exposure to combination • b. Endothall at 0.68 mg/L, add 0.02 mg/L penoxsulam 24 days later—static exposure to combination • c. Penoxsulam 0.02 mg/L, add 0.68 mg/L endothall 12 days later—12 day exposure to combination • d. Endothall at 0.68 mg/L, add 0.02 mg/L penoxsulam 12 days later—12 day exposure to combination • e. Penoxsulam 0.02 mg/L, add 0.68 mg/L endothall 6 days later—6 day exposure to combination • f. Endothall at 0.68 mg/L, add 0.02 mg/L penoxsulam 6 days later—6 day exposure to combination
Endothall was formulated as Aquathol K® (4.23 #/gallon dipotassium salt, or 3#/gallon a.e.); penoxsulam was formulated as Galleon SC® (2#/gallon active ingredient). All concentrations are expressed as a.e. for endothall. At each exposure time, plants were removed from treatments and placed in a tank with fresh water containing no herbicide (including controls) to remove the aqueous exposure and allow for recovery.
Plants were harvested at 48 days after initial treatment. At harvest, plants were rinsed free of algae and placed in paper sacks in a drying oven for 4 days at 70° C. temperature. Mean dry weights were determined and means separated using least significant differences. Difference between observed and expected responses was determined to evaluate potential interactions using methods reported by Colby (Colby S. R. 1967. Weeds. 15:20-22).

[2] = test system: hydrilla; conditions: cited from earlier work
[3] = test system: hydrilla; assay: Penoxsulam+endothall under static exposure to hydrilla, GR50 and Isobole analysis; type: in vivo, Hydrilla verticillata; conditions: harvested 55 days after treatment, n = 3, endothall as a.e., combinations as total ppb
From the text: (§1) Single apical meristems of hydrilla, collected from Florida, were planted into small pots (13.5 cm length×3.75 cm diameter) containing Wallace Farm® topsoil amended with 14-14-14 slow release Osmocote® fertilizer (˜2.5 g Osmocote/kg soil) on 18 Jul. 2008. Approximately 5 to 7 cm of the apical section extended above the sediment at planting, and a sand cap was placed over the potting soil (˜2 cm deep). Plants were then transferred to a 12 L acrylic tanks filled with well water. Tanks were maintained in a growth room with 14:10 h photoperiod at 26° C. Plants were allowed to establish growth for 14 days before treatment.
(§2) Treatments were replicated three times in a completely randomized design. […] All concentrations are expressed as a.e. for endothall.
All above ground biomass was harvested 55 days after treatment. Biomass was dried to constant moisture at 70° C., and dry weights were determined. Data were subjected to regression analysis using Sigma Plot software, and a GR50 was determined (concentration causing a 50% reduction in dry weight). All data were analyzed for synergism/antagonism using the Isobole analysis at the 95% confidence level (estimated using linear interpolation from 95% confidence bands) (Berenbaum, M. C. 1989, Pharmacological Reviews. 41:93-141; Streibig, J. C. 2003, Assessment of herbicide effects: http://www.ewrs.org/et/images/, Herbicide interaction.pdf). […]

[4] = test system: hydrilla; assay: Imazamox+endothall under static exposure to hydrilla, GR50 and Isobole analysis; type: in vivo, Hydrilla verticillata; conditions: harvested 34 days after treatment, n = 3, endothall as a.e., combinations as total ppb
From the text: as §1, with “on 4 Nov.” for “on 18 Jul.”, “for 10” for “for 14”
as §2
All above ground biomass was harvested 34 days after treatment. Biomass was dried to constant moisture at 70° C., and dry weights were determined. Data were subjected to regression analysis using Sigma Plot software, and a GR50 was determined (concentration causing a 50% reduction in dry weight). All data were analyzed for synergism/antagonism using the Isobole analysis at the 95% confidence level (estimated using linear interpolation from 95% confidence bands) (refer to Example 2 for more information on Isobole analysis).

[5] = test system: hydrilla (Hydrilla verticillata); assay: Field Study 1: hydrilla control in a 6 acre lake divided into three zones; type: in vivo; conditions: 21 days after treatment
Experimental: A 6 acre somewhat rectangular-shaped lake was divided into three 2 acre zones for this testing. A 2-acre test site (Zone 1), located on the northern one-third of the lake, was treated with a penoxsulam plus endothall combination in order to evaluate control of the exotic aquatic weed, hydrilla (Hydrilla verticillata). Within a 50 gallon spray tank system powered by a 5.5 Hp Honda motor, 0.523 gallons Galleon SC (a commercially available penoxsulam formulation) and 12.7 gallons Aquathol K (a commercially available endothall formulation) were added to 36.78 gallons of water. The herbicide combination mixture delivered an application dose of 15 parts per billion penoxsulam and 0.71 ppm a.e. endothall to Zone 1. This herbicide mixture was evenly injected using a trailing hose over the airboat bow throughout the 2 acre Zone 1. On the day of treatment, Zone 1 contained approximately 90% hydrilla coverage, with growth near or at the water surface.
The remaining 4 acres (both Zone 2 (central one-third) and Zone 3 (southern one-third)) of the lake were treated with 15 ppb penoxsulam alone on the same day. Both Zones 2 and 3 contained approximately 90-95% hydrilla coverage at that time.
Twenty one days following the initial treatment, the hydrilla was assessed for herbicidal injury within Zones 1, 2, and 3. […] Approximately 10% of the original plant volume remained near the water's surface; the balance had fallen to the lake bottom. The same was true for a 1 acre area contiguous down lake to Zone 1 moving into Zone 2. All remaining hydrilla plants suspended in the water column within the 3 acres were expressing severe injury.
On this date, 0.71 ppm a.e. endothall (12.7 gallons Aquathol K) was applied to Zone 3 in order to evaluate contact herbicidal efficacy 21 days following a penoxsulam treatment.

[6] = 3-d exposure, harvested 48 days after initial treatment, n = 3
[7] = 6-d exposure (f/b: second agent added 6 days later, 6 day exposure to combination), harvested at 48 days
[8] = 12-d exposure (f/b: second agent added 12 days later, 12 day exposure to combination), harvested at 48 days
[9] = 24-d exposure (f/b: second agent added 24 days later, static exposure to combination), harvested at 48 days
[10] = 48-d (static) exposure, harvested at 48 days
[11] = Zone 3 and southern portion of Zone 2, 15 ppb penoxsulam alone

Row | SMILES | Mean dry weight of hydrilla [1, 6] | Mean dry weight of hydrilla [1, 7] | Mean dry weight of hydrilla [1, 8] | Mean dry weight of hydrilla [1, 9] | Mean dry weight of hydrilla [1, 10] | OBSERVED RESPONSE ([1]; exposure 3 days) | OBSERVED RESPONSE ([1]; exposure 6 days) | OBSERVED RESPONSE ([1]; exposure 12 days) | OBSERVED RESPONSE ([1]; exposure 24 days) | OBSERVED RESPONSE ([1]; exposure 48 days) | hydrilla biomass compared to untreated controls (LSD, p = 0.05) [1] | hydrilla control ([2]; 0.71 ppm a.e. endothall partial area/spot treatment, general) | time before hydrilla plants defoliate and drop toward the lake bottom ([2]; 1.4 to 3.5 ppm a.e. endothall, typical, dependent on plant maturity) | contact with hydrilla required to achieve effective control ([2]; Netherland et al. 1991) | GR50 (concentration causing a 50% reduction in dry weight) [3] [ppb] | GR50 (concentration causing a 50% reduction in dry weight) [4] [ppb] | time before severe injury is expressed ([2]; penoxsulam treated hydrilla, typical) | hydrilla control [5, 11] | hydrilla remaining near the water's surface [5, 11] | herbicidal injury of hydrilla ([5]; Zones 2 and 3, 15 ppb penoxsulam alone)
1 | O=C(O)[C@@H]1[C@H](C(=O)O)[C@H]2CC[C@@H]1O2 [Endothall, 3,6-endoxohexahydrophthalic acid] | 2.24b | 2.61ab | 2.72c | 2.14bc | 1.62b | 64% of control | 62% of control | 48% of control | 47% of control | 35% of control | reduced hydrilla biomass compared to untreated controls at all exposure periods, except 3 and 6-day | essentially no hydrilla control | 2-6 weeks | less than 72 hours | 309 | 520 | – | – | – | –
2 | COc1cnc(OC)n2nc(NS(=O)(=O)c3c(OCC(F)F)cccc3C(F)(F)F)nc12 [Penoxsulam, 2-(2,2-difluoroethoxy)-6-trifluoromethyl-N-(5,8-dimethoxy[1,2,4]triazolo[1,5c]pyrimidin-2-yl)benzenesulfonamide] | 4.01a | 3.97a | 3.68ab | 3.24ab | 2.41ab | 115% of control | 95% of control | 97% of control | 72% of control | 52% of control | not significantly different from untreated controls | – | – | – | 12 | – | about 60 days | no control was observed | Approximately 90% | slight but expected penoxsulam injury
3 | COCc1cnc(C2=NC(C)(C(C)C)C(=O)N2)c(C(=O)O)c1 (stereo not drawn) [Imazamox] | – | – | – | – | – | – | – | – | – | – | – | – | – | – | – | 680 | – | – | – | –
